{"source": "paper PMC6934184", "about": "“Selective DNA-PKcs inhibition extends the therapeutic index of localized radiotherapy and chemotherapy” (The Journal of Clinical Investigation, 2019)", "target": "T1, KIT D816H (Homo sapiens, UniProt P10721, D816H)", "T1 construct": "purchased Thermo Fisher Scientific (Life Technologies) SelectScreen", "T1 sequence (P10721 26-976 D816H)": "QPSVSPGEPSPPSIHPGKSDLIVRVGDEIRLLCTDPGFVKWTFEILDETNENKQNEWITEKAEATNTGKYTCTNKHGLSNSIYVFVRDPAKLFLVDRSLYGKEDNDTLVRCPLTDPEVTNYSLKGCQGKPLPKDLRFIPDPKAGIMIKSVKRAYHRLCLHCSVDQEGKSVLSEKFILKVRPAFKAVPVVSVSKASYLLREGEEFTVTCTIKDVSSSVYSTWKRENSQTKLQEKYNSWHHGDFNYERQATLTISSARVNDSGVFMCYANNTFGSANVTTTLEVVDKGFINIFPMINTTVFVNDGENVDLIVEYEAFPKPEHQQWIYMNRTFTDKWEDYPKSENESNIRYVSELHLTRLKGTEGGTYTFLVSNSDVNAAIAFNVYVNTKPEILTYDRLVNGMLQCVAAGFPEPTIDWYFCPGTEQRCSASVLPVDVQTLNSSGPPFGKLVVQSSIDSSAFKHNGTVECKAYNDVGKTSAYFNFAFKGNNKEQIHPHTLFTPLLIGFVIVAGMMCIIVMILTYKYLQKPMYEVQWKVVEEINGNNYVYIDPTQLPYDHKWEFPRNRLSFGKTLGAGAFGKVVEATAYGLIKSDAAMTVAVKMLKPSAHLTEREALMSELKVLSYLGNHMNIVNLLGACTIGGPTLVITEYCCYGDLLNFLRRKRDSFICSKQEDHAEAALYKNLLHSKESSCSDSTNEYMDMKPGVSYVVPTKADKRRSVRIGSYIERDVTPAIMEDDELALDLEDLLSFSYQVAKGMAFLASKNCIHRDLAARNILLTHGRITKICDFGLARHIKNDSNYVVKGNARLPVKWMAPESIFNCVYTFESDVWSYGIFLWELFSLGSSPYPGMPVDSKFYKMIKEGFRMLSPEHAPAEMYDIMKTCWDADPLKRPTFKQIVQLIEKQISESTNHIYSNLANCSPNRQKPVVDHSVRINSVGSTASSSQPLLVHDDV", "experiment": "SelectScreen LanthaScreen", "type": "binding", "settings": "read-out: % displacement", "method_in_brief": "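NU5455 was profiled across the SelectScreen Broad panel of kinase activity and binding assays. Z'LYTE reactions such as CSF1R ran at apparent Km ATP, while the Adapta CAMK1 assay used ATP listed as 10. Values are given as percent.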", "data": [{"smiles": "CN(C(=O)CN1CCOCC1)c1ccc2sc3c(-c4cccc5c(=O)cc(N6CC7CCC(C6)O7)oc45)cccc3c2c1", "note": "[NU5455]", "values": [{"measurement": "inhibition at 1 µM", "value": -0.2, "unit": "%"}]}]}
